Assay results as given in patent US20240108734A1, “METHODS FOR TREATING AND AMELIORATING CANCER” (The Regents of the University of California, priority 2021, published 2024).
“Also recorded” adds a separate entry of the source.

Test system: BC CML CD34+ cells engrafted in RAG2-/-yc-/- mice
Experiment: Humanized BC CML LSC mouse model
Format: in vivo
From the text: Human CD34^+ cells isolated from MF and BC CML samples (Table S2, illustrated as FIG. 11) were transplanted intravenously into adult NSG-SGM3 (expressing human IL-3, GM-CSF and SCF) mice following 300 cGy of irradiation or intrahepatically into neonatal RAG2^−/− yc^−/− mice, respectively^27,32.
Human CD34^+ cells isolated from MF and BC CML (Table S2) samples were transplanted intravenously into adult NSG-SGM3 (expressing human IL-3, GM-CSF and SCF) mice following
300 cGy of irradiation or intrahepatically into newborn RAG2^−/−[…]c^−/− mice^28,32,34. Post-transplantation (13 to 16 weeks), bone marrow and spleen were collected and analyzed by FACS^32. Mice were treated with vehicle, mismatch or imetelstat at varying doses. Also, MF CD34^+ cells were transduced with pCDH lentivirus control or ADAR1-OE lentivirus with a MOI of 100 for 48 hours, followed by intravenous transplantation into NSG-SGM3 mice to assess the impact of ADAR1 overexpression on MF engraftment.
FIG. 4A. A schema of humanized BC CML LSC and MF SPC mouse models. Human CD34^+ cells sorted from either BC CML or myelofibrosis patient blood or marrow were transplanted into neonatal Rag2^−/−[…]c^−/− mice or intravenously transplanted into adult NSG-S mice. Engrafted BC CML or MF mouse models were randomized into (1) vehicle control, (2) mismatch control, and (3) imetelstat treatment groups (n≥3/group). Bone marrow (BM) and spleen were collected when completing the dosing plan, and the single-cell suspension was analyzed by FACS.

[1] = 30 mg/kg imetelstat three times a week for 4 weeks, 5 different BC CML, vs vehicle controls

imetelstat
human CD45+ cell proliferation / engraftment [1]: significant reduction; also recorded: reduced
malignant progenitor proliferation / engraftment [1]: significant reduction; also recorded: reduced
splenomegaly (BC CML xenograft): decreases splenomegaly
